Experimental data: publication PMC9921851, “Synthesis and Preclinical Evaluation of Three Novel ^68Ga-Labeled Bispecific PSMA/FAP-Targeting Tracers for Prostate Cancer Imaging” (Molecules, 2023)
Read-outs that look alike come from different tables or passages of the source.

What was measured:
[1] = tested on: FAP-expressing HEK293T:hFAP tumor xenografts; test: Ex vivo biodistribution in HEK293T:hFAP tumor-bearing mice; conditions: 1 h post injection, mean ± SD, n = 4
Protocol: Biodistribution studies were also conducted at 1 h post injection with [^68Ga]Ga-AV01017, [^68Ga]Ga-AV01030, [^68Ga]Ga-AV01038, [^68Ga]Ga-HTK03041, and [^68Ga]Ga-FAPI-04 in HEK293T:hFAP tumor-bearing mice (Figure 6 and Table S5, Supplementary Materials). Tumor uptake values for [^68Ga]Ga-AV01017, [^68Ga]Ga-AV01030, [^68Ga]Ga-AV01038, [^68Ga]Ga-HTK03041, and [^68Ga]Ga-FAPI-04 were 2.99 ± 0.37, 3.69 ± 0.81, 3.64 ± 0.83, 0.62 ± 0.19, and 12.5 ± 2.00 %ID/g, respectively. There was a very low tumor uptake in mice injected with [^68Ga]Ga-HTK03041, showing very minimal FAP expression in this tumor model. The uptake levels of these tracers on the major organs and tissues are consistent with the trends observed in the LNCaP tumor-baring mice (Figure 5 and Supplemental Table S4).
(§1) Imaging and biodistribution studies were performed using male NOD.Cg-Rag1tm1Mom Il2rgtm1Wjl/SzJ (NRG) mice following previously published procedures. The experiments were conducted according to the guidelines established by the Canadian Council on Animal Care and approved by Animal Ethics Committee of the University of British Columbia. The mice were briefly sedated by inhalation of 2.5% isoflurane in oxygen, and 100 µL LNCaP (2 × 10^5 cells) or HEK293T:hFAP (8.5 × 10^6 cells) cells were inoculated subcutaneously behind the left shoulder. When the tumor grew to 5–8 mm in diameter over 3–4 weeks and 4–5 weeks for HEK293T:hFAP and LNCaP tumors, respectively, the mice were used for PET/CT imaging and biodistribution studies.
(§2) For biodistribution studies, the mice were injected with the radiotracer (~2–4 MBq) as described above. At 1 h post injection, the mice were euthanized by CO2 inhalation. Blood was withdrawn by cardiac puncture, and organs/tissues of interest were collected, weighed, and counted using a Perkin Elmer (Waltham, MA, USA) Wizard2 2480 automatic gamma counter.

[2] = tested on: PSMA-expressing LNCaP tumor xenografts; parameters: method as in earlier work; conditions: LNCaP tumor-bearing mice, 1 h post injection, reported previously, ref 4 (supplement); cited from earlier work
PSMA = biological target: T1, PSMA (Homo sapiens, UniProt Q04609); test: In vitro PSMA competition binding assay ([^18F]DCFPyL displacement on LNCaP cells); conditions: radioligand [^18F]DCFPyL, n = 3
T1 construct: endogenous in cells; host or cells: LNCaP cells (ATCC via Cedarlane)
Protocol: The binding affinities of Ga-AV01017, Ga-AV01030, Ga-AV01038, Ga-HTK03041, and Ga-FAPI-04 to PSMA were measured by a cell-based binding assay using PSMA-expressing LNCaP prostate cancer cells. The nonradioactive Ga-complexed standards, except Ga-FAPI-04, inhibited the binding of [^18F]DCFPyL to LNCaP cells in a dose-dependent manner (Figure 3A).
The PSMA binding assays were conducted following previously published procedures using LNCaP cells and [^18F]DCFPyL as the radioligand [34, 42, 43]. Data analyses of IC50 were performed using the nonlinear regression algorithm of GraphPad Prism 7 (San Diego, CA, USA) software.

[3] = tested on: PSMA-expressing LNCaP tumor xenografts; test: Ex vivo biodistribution in LNCaP tumor-bearing mice; conditions: LNCaP tumor-bearing mice, 1 h post injection, mean ± SD, n = 4
Protocol: Biodistribution studies were conducted at 1 h post injection with ^68Ga-labeled AV01017, AV01030, AV01038, HTK03041, and FAPI-04 in LNCaP tumor-bearing mice (Figure 5 and Table S4, Supplementary Materials). The results were consistent with the observation from their PET images. Tumor uptake values for [^68Ga]Ga-AV01017, [^68Ga]Ga-AV01030, [^68Ga]Ga-AV01038, [^68Ga]Ga-HTK03041, and [^68Ga]Ga-FAPI-04 were 4.38 ± 0.55, 5.17 ± 0.51, 4.25 ± 0.86, 23.1 ± 6.11, and 3.15 ± 1.43 %ID/g, respectively. […] Although not statistically significant, the bispecific tracers with a longer linker tend to have a higher blood uptake value (9.24 ± 1.55 %ID/g for [^68Ga]Ga-AV01017; 7.07 ± 0.31%ID/g for [^68Ga]Ga-AV01038; 5.75 ± 0.59 %ID/g for [^68Ga]Ga-AV01030) and a lower tumor-to-blood ratio (0.48 ± 0.11 for [^68Ga]Ga-AV01017; 0.60 ± 0.13 for [^68Ga]Ga-AV01038; 0.89 ± 0.03 for [^68Ga]Ga-AV01030).
as §1, §2

T1 sequence (Q04609 whole entry): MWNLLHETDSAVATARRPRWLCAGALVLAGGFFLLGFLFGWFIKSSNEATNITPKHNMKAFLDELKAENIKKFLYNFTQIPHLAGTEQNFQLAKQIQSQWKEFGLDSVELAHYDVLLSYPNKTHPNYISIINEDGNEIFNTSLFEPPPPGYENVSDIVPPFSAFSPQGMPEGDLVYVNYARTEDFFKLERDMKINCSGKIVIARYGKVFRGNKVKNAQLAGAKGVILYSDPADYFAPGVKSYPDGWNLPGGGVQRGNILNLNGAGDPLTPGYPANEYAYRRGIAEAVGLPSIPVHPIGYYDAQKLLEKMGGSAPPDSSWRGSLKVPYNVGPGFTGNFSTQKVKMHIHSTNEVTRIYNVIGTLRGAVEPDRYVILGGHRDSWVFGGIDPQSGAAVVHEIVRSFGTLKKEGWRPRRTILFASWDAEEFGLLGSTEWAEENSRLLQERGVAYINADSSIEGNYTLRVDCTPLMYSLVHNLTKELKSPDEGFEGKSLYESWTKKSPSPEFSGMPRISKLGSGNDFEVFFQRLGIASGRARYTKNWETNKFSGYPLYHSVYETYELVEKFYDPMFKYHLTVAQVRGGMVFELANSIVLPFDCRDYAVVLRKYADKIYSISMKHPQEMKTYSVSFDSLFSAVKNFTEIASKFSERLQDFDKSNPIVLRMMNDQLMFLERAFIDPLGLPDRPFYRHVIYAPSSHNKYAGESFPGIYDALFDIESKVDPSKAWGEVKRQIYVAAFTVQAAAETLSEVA

Work on O=C([O-])CN1CCN(CC(=O)[O-])CCN(CC(=O)NC[C@H]2CC[C@H](C(=O)N[C@@H](Cc3c4ccccc4cc4ccccc34)C(=O)NCCCC[C@H](NC(=O)N[C@@H](CCC(=O)O)C(=O)O)C(=O)O)CC2)CCN(CC(=O)[O-])CC1.[68Ga+3] [[^68Ga]Ga-HTK03041, reference compound] yielded an Adrenal glands uptake [1] of 4.18 ± 0.48 %ID/g, a Blood uptake [1] of 0.71 ± 0.07 %ID/g and a Bone uptake [1] of 0.42 ± 0.11 %ID/g. For the same molecule, the Brain uptake [1] was 0.03 ± 0.00 %ID/g, the Fat uptake [1] was 0.55 ± 0.12 %ID/g and the “HEK293T:hFAP tumor uptake” value [1] was 0.62 ± 0.19 %ID/g. It also gave a Heart uptake [1] of 0.98 ± 0.07 %ID/g, a Kidneys uptake [1] of 68.4 ± 19.2 %ID/g and a Lacrimal gland uptake [1] of 0.25 ± 0.33 %ID/g. For the same molecule, the “Large Intestine uptake” value [1] was 0.43 ± 0.04 %ID/g, the Liver uptake [1] was 0.72 ± 0.06 %ID/g and the Lungs uptake [1] was 2.43 ± 0.08 %ID/g. It also gave a Muscle uptake [1] of 0.47 ± 0.03 %ID/g, a Pancreas uptake [1] of 0.71 ± 0.07 %ID/g and a Salivary glands uptake [1] of 2.29 ± 0.16 %ID/g. For the same molecule, the Seminal vesicle uptake [1] was 0.32 ± 0.03 %ID/g, the “Small Intestine uptake” value [1] was 0.71 ± 0.01 %ID/g and the Spleen uptake [1] was 8.09 ± 2.37 %ID/g. The Stomach uptake [1] was 0.22 ± 0.04 %ID/g, the Testes uptake [1] was 0.60 ± 0.41 %ID/g and the Thyroid uptake [1] was 1.38 ± 0.10 %ID/g. The Tumor/blood uptake ratio [1] was 0.83 ± 0.54, the Tumor/bone uptake ratio [1] was 1.39 ± 0.58 and the Tumor/kidney uptake ratio [1] was 0.01 ± 0.01. For the same molecule, the Tumor/muscle uptake ratio [1] was 1.22 ± 0.73, the Blood uptake [2] was 1.43 ± 0.30 %ID/g and the Bone uptake [2] was 1.29 ± 0.45 %ID/g. For the same molecule, the Brain uptake [2] was 0.10 ± 0.05 %ID/g, the Fat uptake [2] was 2.06 ± 0.59 %ID/g and the Heart uptake [2] was 1.82 ± 0.62 %ID/g. For the same molecule, the Kidneys uptake [2] was 170 ± 26.4 %ID/g, the LNCaP tumor uptake [2] was 23.1 ± 6.11 %ID/g and the Liver uptake [2] was 1.38 ± 0.25 %ID/g. The Muscle uptake [2] was 0.75 ± 0.09 %ID/g, the Pancreas uptake [2] was 1.47 ± 0.16 %ID/g and the “Small Intestine uptake” value [2] was 1.14 ± 0.18 %ID/g. For the same molecule, the Spleen uptake [2] was 8.95 ± 3.22 %ID/g, the Stomach uptake [2] was 0.41 ± 0.11 %ID/g and the Testes uptake [2] was 1.34 ± 0.22 %ID/g. For the same molecule, the Thyroid uptake [2] was 2.48 ± 0.44 %ID/g, the Tumor/blood uptake ratio [2] was 17.3 ± 7.24 and the Tumor/bone uptake ratio [2] was 20.1 ± 9.48. For the same molecule, the Tumor/kidney uptake ratio [2] was 0.14 ± 0.04 and the Tumor/muscle uptake ratio [2] was 31.6 ± 12.1.

Work on N#C[C@@H]1CC(F)(F)CN1C(=O)CNC(=O)c1ccnc2ccc(OCCCN3CCN(C(=O)CN4CCN(CC(=O)[O-])CCN(CC(=O)[O-])CCN(CC(=O)[O-])CC4)CC3)cc12.[Ga+3] [Ga-FAPI-04, reference compound] yielded an IC50 (PSMA) greater than 1000 nM.

Work on N#C[C@@H]1CC(F)(F)CN1C(=O)CNC(=O)c1ccnc2ccc(-c3cn(CC(=O)N[C@@H](CCCCNC(=O)CN4CCN(CC(=O)[O-])CCN(CC(=O)[O-])CCN(CC(=O)[O-])CC4)C(=O)NCC(=O)NC[C@H]4CC[C@H](C(=O)N[C@@H](Cc5c6ccccc6cc6ccccc56)C(=O)NCCCC[C@H](NC(=O)N[C@@H](CCC(=O)O)C(=O)O)C(=O)O)CC4)nn3)cc12.[68Ga+3] [[^68Ga]Ga-AV01030] yielded an Adrenal glands uptake [1] of 3.15 ± 0.39 %ID/g, a Blood uptake [1] of 5.68 ± 0.72 %ID/g and a Bone uptake [1] of 3.59 ± 0.44 %ID/g. The Brain uptake [1] was 0.12 ± 0.02 %ID/g, the Fat uptake [1] was 0.63 ± 0.20 %ID/g and the “HEK293T:hFAP tumor uptake” value [1] was 3.69 ± 0.81 %ID/g. The Heart uptake [1] was 2.20 ± 0.46 %ID/g, the Kidneys uptake [1] was 30.0 ± 8.71 %ID/g and the Lacrimal gland uptake [1] was 0.20 ± 0.24 %ID/g. For the same molecule, the “Large Intestine uptake” value [1] was 1.15 ± 0.10 %ID/g, the Liver uptake [1] was 1.51 ± 0.33 %ID/g and the Lungs uptake [1] was 3.02 ± 0.25 %ID/g. It also gave a Muscle uptake [1] of 1.78 ± 0.58 %ID/g, a Pancreas uptake [1] of 3.26 ± 0.82 %ID/g and a Salivary glands uptake [1] of 7.01 ± 2.25 %ID/g. The “Small Intestine uptake” value [1] was 1.23 ± 0.16 %ID/g, the Spleen uptake [1] was 7.41 ± 1.75 %ID/g and the Stomach uptake [1] was 0.42 ± 0.04 %ID/g. For the same molecule, the Testes uptake [1] was 0.66 ± 0.08 %ID/g, the Thyroid uptake [1] was 7.70 ± 1.08 %ID/g and the Tumor/bone uptake ratio [1] was 1.04 ± 0.31. For the same molecule, the Tumor/muscle uptake ratio [1] was 2.12 ± 0.30, the Adrenal glands uptake [3] was 3.13 ± 1.25 %ID/g and the Blood uptake [3] was 5.75 ± 0.59 %ID/g. For the same molecule, the Bone uptake [3] was 4.48 ± 0.59 %ID/g, the Brain uptake [3] was 0.12 ± 0.01 %ID/g and the Fat uptake [3] was 0.68 ± 0.12 %ID/g. It also gave a Heart uptake [3] of 2.41 ± 0.13 %ID/g, a Kidneys uptake [3] of 44.0 ± 2.42 %ID/g and an LNCaP tumor uptake [3] of 5.17 ± 0.51 %ID/g. For the same molecule, the Lacrimal glands uptake [3] was 0.44 ± 0.68 %ID/g, the “Large Intestine uptake” value [3] was 1.32 ± 0.29 %ID/g and the Liver uptake [3] was 1.43 ± 0.26 %ID/g. For the same molecule, the Lungs uptake [3] was 2.93 ± 0.28 %ID/g, the Muscle uptake [3] was 1.59 ± 0.14 %ID/g and the Pancreas uptake [3] was 3.63 ± 0.29 %ID/g. For the same molecule, the Salivary glands uptake [3] was 4.76 ± 1.79 %ID/g, the Seminal vesicle uptake [3] was 1.04 ± 0.13 %ID/g and the “Small Intestine uptake” value [3] was 1.58 ± 0.13 %ID/g. It also gave a Spleen uptake [3] of 6.50 ± 1.37 %ID/g, a Stomach uptake [3] of 0.44 ± 0.07 %ID/g and a Testes uptake [3] of 0.70 ± 0.08 %ID/g. It also gave a Thyroid uptake [3] of 8.33 ± 0.41 %ID/g, a Tumor/blood uptake ratio [3] of 0.89 ± 0.03 and a Tumor/bone uptake ratio [3] of 1.17 ± 0.26. For the same molecule, the Tumor/kidney uptake ratio [3] was 0.11 ± 0.00 and the Tumor/muscle uptake ratio [3] was 3.25 ± 0.39.
